# According to ChEMBL document CHEMBL3885881, “DrugMatrix”:
# Species on record: Rattus norvegicus
# Assay: DrugMatrix - Regimen: Daily Repeat
# Type: toxicity, organism-based, Sprague-Dawley
# Set-up: regimen Daily Repeat, gender Male, age 6-8 weeks
# Conditions: in vivo, sc, route subcutaneous, […]; for ABSOLUTE BASOPHIL / ABSOLUTE EOSINOPHIL / ABSOLUTE LYMPHOCYTE / ABSOLUTE MONOCYTE / ABSOLUTE SEGMENTED NEUTROPHIL / BASOPHIL / EOSINOPHIL / ERYTHROCYTE COUNT / HEMATOCRIT / HEMOGLOBIN / LEUKOCYTE COUNT / LYMPHOCYTE / MEAN CORPUSCULAR HEMOGLOBIN / MEAN CORPUSCULAR VOLUME / MONOCYTE / NEUTROPHIL / NUCLEATED RED BLOOD CELLS / PLATELET COUNT: tissue Blood; for ALANINE AMINOTRANSFERASE / ALBUMIN / ALKALINE PHOSPHATASE / ASPARTATE AMINOTRANSFERASE / BLOOD UREA NITROGEN / CARBON DIOXIDE / CHLORIDE / CHOLESTEROL / CREATINE PHOSPHOKINASE / CREATININE / GLUCOSE / LACTATE DEHYDROGENASE / LIPASE / PHOSPHORUS / POTASSIUM / SODIUM / TOTAL BILIRUBIN / TOTAL PROTEIN / URIC ACID: tissue Plasma
# [1] = 50 mg/kg, 120 h, dose level Low, time 5 day
# [2] = 450 mg/kg, 72 h, dose level M2, time 3 day
# [3] = 450 mg/kg, 120 h, dose level M2, time 5 day
compound,measurement,setting,value
CCCCCCCCc1ccc(O)cc1 [4-OCTYLPHENOL],ABSOLUTE BASOPHIL,[1],0 CELLS/uL
same,ABSOLUTE EOSINOPHIL,[1],65.33 CELLS/uL
same,ABSOLUTE LYMPHOCYTE,[1],9619.33 CELLS/uL
same,ABSOLUTE MONOCYTE,[1],226 CELLS/uL
same,ABSOLUTE SEGMENTED NEUTROPHIL,[1],589.33 CELLS/uL
same,BASOPHIL,[1],0%
same,EOSINOPHIL,[1],0.67%
same,ERYTHROCYTE COUNT,[1],5.5 x10E6/uL
same,HEMATOCRIT,[1],35.3%
same,HEMOGLOBIN,[1],13.8 G/DL
same,LEUKOCYTE COUNT,[1],10.5 x10E3/uL
same,LYMPHOCYTE,[1],91.33%
same,MEAN CORPUSCULAR HEMOGLOBIN,[1],25.17 pg
same,MEAN CORPUSCULAR VOLUME,[1],64.33 fL
same,MONOCYTE,[1],2.33%
same,NEUTROPHIL,[1],5.67%
same,NUCLEATED RED BLOOD CELLS,[1],0 /100WBC
same,PLATELET COUNT,[1],1190 x10E3/uL
same,ALANINE AMINOTRANSFERASE,[1],45.33 u/L
same,ALBUMIN,[1],3.2 G/DL
same,ALKALINE PHOSPHATASE,[1],276.67 u/L
same,ASPARTATE AMINOTRANSFERASE,[1],80 u/L
same,BLOOD UREA NITROGEN,[1],15 mg/dL
same,CARBON DIOXIDE,[1],29.67 mmol/L
same,CHLORIDE,[1],100 MEQ/L
same,CHOLESTEROL,[1],78 mg/dL
same,CREATINE PHOSPHOKINASE,[1],339.67 u/L
same,CREATININE,[1],0.16 mg/dL
same,GLUCOSE,[1],161.33 mg/dL
same,LACTATE DEHYDROGENASE,[1],367 u/L
same,LIPASE,[1],9 u/L
same,PHOSPHORUS,[1],12.2 mg/dL
same,POTASSIUM,[1],6.42 MEQ/L
same,SODIUM,[1],141.23 MEQ/L
same,TOTAL BILIRUBIN,[1],0.1 mg/dL
same,TOTAL PROTEIN,[1],5.57 G/DL
same,URIC ACID,[1],1.5 mg/dL
same,ABSOLUTE BASOPHIL,[2],0 CELLS/uL
same,ABSOLUTE EOSINOPHIL,[2],58 CELLS/uL
same,ABSOLUTE LYMPHOCYTE,[2],8257.67 CELLS/uL
same,ABSOLUTE MONOCYTE,[2],28.33 CELLS/uL
same,ABSOLUTE SEGMENTED NEUTROPHIL,[2],256 CELLS/uL
same,BASOPHIL,[2],0%
same,EOSINOPHIL,[2],0.67%
same,ERYTHROCYTE COUNT,[2],5.23 x10E6/uL
same,HEMATOCRIT,[2],32.2%
same,HEMOGLOBIN,[2],12.73 G/DL
same,LEUKOCYTE COUNT,[2],8.6 x10E3/uL
same,LYMPHOCYTE,[2],96%
same,MEAN CORPUSCULAR HEMOGLOBIN,[2],24.37 pg
same,MEAN CORPUSCULAR VOLUME,[2],61.63 fL
same,MONOCYTE,[2],0.33%
same,NEUTROPHIL,[2],3%
same,NUCLEATED RED BLOOD CELLS,[2],0 /100WBC
same,PLATELET COUNT,[2],1100 x10E3/uL
same,ALANINE AMINOTRANSFERASE,[2],61 u/L
same,ALBUMIN,[2],3.07 G/DL
same,ALKALINE PHOSPHATASE,[2],305.67 u/L
same,ASPARTATE AMINOTRANSFERASE,[2],93.67 u/L
same,BLOOD UREA NITROGEN,[2],9.67 mg/dL
same,CARBON DIOXIDE,[2],24 mmol/L
same,CHLORIDE,[2],94 MEQ/L
same,CHOLESTEROL,[2],75.33 mg/dL
same,CREATINE PHOSPHOKINASE,[2],340.33 u/L
same,CREATININE,[2],0.3 mg/dL
same,GLUCOSE,[2],117.67 mg/dL
same,LACTATE DEHYDROGENASE,[2],409.67 u/L
same,LIPASE,[2],9 u/L
same,PHOSPHORUS,[2],10.37 mg/dL
same,POTASSIUM,[2],5.55 MEQ/L
same,SODIUM,[2],137.75 MEQ/L
same,TOTAL BILIRUBIN,[2],0.1 mg/dL
same,TOTAL PROTEIN,[2],5.1 G/DL
same,URIC ACID,[2],0.63 mg/dL
same,ABSOLUTE BASOPHIL,[3],0 CELLS/uL
same,ABSOLUTE EOSINOPHIL,[3],224.33 CELLS/uL
same,ABSOLUTE LYMPHOCYTE,[3],13520.67 CELLS/uL
same,ABSOLUTE MONOCYTE,[3],303.33 CELLS/uL
same,ABSOLUTE SEGMENTED NEUTROPHIL,[3],3318.33 CELLS/uL
same,BASOPHIL,[3],0%
same,EOSINOPHIL,[3],1.33%
same,ERYTHROCYTE COUNT,[3],5.94 x10E6/uL
same,HEMATOCRIT,[3],36.27%
same,HEMOGLOBIN,[3],14.17 G/DL
same,LEUKOCYTE COUNT,[3],17.37 x10E3/uL
same,LYMPHOCYTE,[3],78%
same,MEAN CORPUSCULAR HEMOGLOBIN,[3],23.97 pg
same,MEAN CORPUSCULAR VOLUME,[3],61.27 fL
same,MONOCYTE,[3],1.67%
same,NEUTROPHIL,[3],19%
same,NUCLEATED RED BLOOD CELLS,[3],0 /100WBC
same,PLATELET COUNT,[3],1864.67 x10E3/uL
same,ALANINE AMINOTRANSFERASE,[3],43.33 u/L
same,ALBUMIN,[3],3.17 G/DL
same,ALKALINE PHOSPHATASE,[3],326.67 u/L
same,ASPARTATE AMINOTRANSFERASE,[3],82.67 u/L
same,BLOOD UREA NITROGEN,[3],14 mg/dL
same,CARBON DIOXIDE,[3],25.33 mmol/L
same,CHLORIDE,[3],102.67 MEQ/L
same,CHOLESTEROL,[3],71.67 mg/dL
same,CREATINE PHOSPHOKINASE,[3],343 u/L
same,CREATININE,[3],0.19 mg/dL
same,GLUCOSE,[3],162.33 mg/dL
same,LACTATE DEHYDROGENASE,[3],384.67 u/L
same,LIPASE,[3],9.67 u/L
same,PHOSPHORUS,[3],12.93 mg/dL
same,POTASSIUM,[3],7.17 MEQ/L
same,SODIUM,[3],141.23 MEQ/L
same,TOTAL BILIRUBIN,[3],0.13 mg/dL
same,TOTAL PROTEIN,[3],5.4 G/DL
same,URIC ACID,[3],2.67 mg/dL
